Results on twelve compounds are retold here after ChEMBL document CHEMBL1201862, “PubChem BioAssay data set” (2004).

The structures appear in SMILES notation.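 Briefly, cells in 96-well plates were exposed to five compound concentrations for 48 h, and endpoints were estimated by linear interpolation. GI50: concentration for 50% inhibition of growth.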 The source made the active and inactive calls. No stated cut-off is given here; in the data, active = GI50 up to about 1.1 µM and inactive = higher.

What all share (experiment): NCI anticancer screen, dose series, 48 h
The test system of assay [1] is OVCAR-8.
Assay [2] deals with NCI-H23.
Assay [3] relates to SK-MEL-5.
For assay [4], the system named is M19-MEL.
In assay [5] the test system is UACC-62.
Assay [6] concerns Malme-3M.
Assay [7] deals with SW-620.
Assay [8] relates to RPMI-8226.
Assay [9] concerns A549.
Assay [10] relates to COLO 205.
For assay [11], the system named is SN12C.
Assay [12] relates to HOP-62.
Assay [13] deals with UACC-257.
Assay [14] concerns UO-31.
The subject of assay [15] is NCI/ADR-RES.
The test system of assay [16] is NCI-H226.
Assay [17] relates to DU-145.
Assay [18] relates to SK-MEL-2.
In assay [19] the test system is MDA-MB-435.
Assay [20] relates to BT-549.

With `O=C1C2c3[nH]c4ccccc4c3C3CCCC3C2C(=O)N1c1ccccc1` (configuration not stated), the GI50 in assay [1] was 61.8 µM (inactive); in assay [2], > 100 µM (inactive); in assay [3], > 100 µM (inactive); in [4] it was > 100 µM (inactive); in assay [5] it was > 100 µM (inactive); in assay [6], > 100 µM (inactive). Besides, the GI50 in assay [7] was 74.1 µM (inactive); in [8], > 100 µM (inactive); in assay [9], > 100 µM (inactive); in [10], > 100 µM (inactive); in assay [11], > 100 µM (inactive).

Regarding `C/C(=N\NS(=O)(=O)c1ccc(C)cc1)c1ccc[n+]([O-])n1`, the GI50 is 99.3 µM (inactive) in [1]; > 100 µM (inactive) in [2]; > 100 µM (inactive) in assay [3]; > 100 µM (inactive) in [4]; > 100 µM (inactive) in assay [12]; > 100 µM (inactive) in [5]. For the same compound, the GI50 in [13] was > 100 µM (inactive); in assay [7], 32.1 µM (inactive); in [8], 36.8 µM (inactive); in assay [14] it was > 100 µM (inactive); in [9], > 100 µM (inactive); in assay [11], > 100 µM (inactive).

In the case of `O=C(O)CC(Cc1ccccc1Cl)C(=O)O` (configuration not stated), the GI50 in [1], in [15], in assay [2], in assay [3], in assay [16] and in assay [17] was > 100 µM (inactive) throughout. The GI50 in [18], in assay [12], in [5], in assay [6], in [13] and in assay [7] was > 100 µM (inactive) in each case. The GI50 in assay [8], in assay [14], in assay [9], in assay [10], in assay [19] and in assay [20] was > 100 µM (inactive) throughout. The GI50 in [11] was > 100 µM (inactive).

For the compound `O=C(CCc1ccccc1)On1nnc2ccccc2c1=O`, the GI50 in assay [1], in assay [2], in assay [3], in assay [16], in assay [4] and in [18] was > 100 µM (inactive) throughout. For the same compound, the GI50 in assay [12], in assay [5], in assay [6], in assay [13], in assay [7] and in [14] was > 100 µM (inactive) throughout. The GI50 in assay [9], in assay [10] and in assay [11] was > 100 µM (inactive) in each case.

Regarding `CC1=NN(c2cccc(Cl)c2)C2(C1)C(Cl)C(=O)N2c1nc2ccccc2s1` (configuration not stated), the GI50 was 32.5 µM (inactive) in assay [1]; 25.4 µM (inactive) in [15]; 19.7 µM (inactive) in assay [2]; 19.4 µM (inactive) in assay [3]; 14.2 µM (inactive) in [16]; 37.1 µM (inactive) in assay [17]. Also, the GI50 in assay [18] is 17.1 µM (inactive); in assay [12], 25.5 µM (inactive); in assay [5], 31.1 µM (inactive); in [6], 30.5 µM (inactive); in assay [13], 42.1 µM (inactive); in assay [7], 33.2 µM (inactive). In addition, the GI50 in assay [8] was 17.3 µM (inactive); in [14] it was 19.3 µM (inactive); in [9], 25.6 µM (inactive); in [10] it was 18 µM (inactive); in assay [19], 25.6 µM (inactive); in assay [20], 27.8 µM (inactive). Moreover, the GI50 in assay [11] is 22.8 µM (inactive).

Consider `NC(Cc1ccnnc1)C(=O)O` (configuration not stated), for which the GI50 in assay [1], in [15], in [2], in [3], in assay [16] and in [17] was > 100 µM (inactive) in each case. The GI50 in assay [18], in assay [12], in [5], in assay [6], in [13] and in assay [7] was > 100 µM (inactive) in each case. Further, the GI50 in assay [8], in [14], in assay [9], in assay [10], in [19] and in [20] was > 100 µM (inactive) throughout. For the same compound, the GI50 in [11] is > 100 µM (inactive).

For `COc1cc(/C=C(\NC(=O)c2ccccc2)c2nc3cncnc3[nH]2)cc(OC)c1OC`, the GI50 in assay [1], in assay [2], in assay [3], in [4], in assay [18] and in assay [5] was > 100 µM (inactive) throughout. Further, the GI50 was > 100 µM (inactive) in [6]; > 100 µM (inactive) in [7]; 57.7 µM (inactive) in assay [14]; > 100 µM (inactive) in assay [9]; > 100 µM (inactive) in assay [10]; > 100 µM (inactive) in assay [11].

For the compound `CC1=C(C)C2(C#N)C(=O)N3C(=NC(c4ccco4)NC3c3ccco3)C2(C#N)C(c2ccco2)N1` (configuration not stated), the GI50 in assay [1], in assay [15], in assay [2], in [3], in [16] and in assay [17] was > 100 µM (inactive) in each case. The GI50 in [18], in assay [12], in assay [5], in [6], in assay [13] and in [7] was > 100 µM (inactive) throughout. Further, the GI50 in assay [8], in [14], in [9], in [10], in assay [19] and in assay [20] was > 100 µM (inactive) throughout. In addition, the GI50 in [11] was > 100 µM (inactive).

For the compound `OC1c2ccccc2C(O)C2OC12` (configuration not stated), the GI50 in [1] is > 100 µM (inactive); in assay [15], > 100 µM (inactive); in assay [2] it was > 100 µM (inactive); in assay [3], > 100 µM (inactive); in [16] it was 78.5 µM (inactive); in [17], > 100 µM (inactive). Moreover, the GI50 in assay [18], in assay [12], in [5], in assay [6], in assay [13] and in [7] was > 100 µM (inactive) throughout. For the same compound, the GI50 in assay [8], in assay [14], in assay [9], in assay [10], in assay [19] and in assay [20] was > 100 µM (inactive) throughout. Also, the GI50 in assay [11] was > 100 µM (inactive).

Consider `COc1cc(C2c3cc4c(cc3OC(NNC(N)=O)C2C)OCO4)cc(OC)c1OC` (configuration not stated), for which the GI50 in assay [1] was 0.356 µM (active); in [15], 4.72 µM (inactive); in assay [2], 0.394 µM (active); in assay [3] it was 0.123 µM (active); in assay [16] it was 0.205 µM (active); in assay [17], 0.585 µM (active). The GI50 is 1.26 µM (inactive) in assay [18]; 0.118 µM (active) in [12]; 0.179 µM (active) in [5]; 0.828 µM (active) in assay [6]; 0.603 µM (active) in assay [13]; 0.142 µM (active) in assay [7]. Further, the GI50 in assay [8] is 0.167 µM (active); in [14], 1.07 µM (active); in assay [9], 0.276 µM (active); in [10], 0.0982 µM (active); in assay [19], 0.0586 µM (active); in assay [20], 2.03 µM (inactive). In addition, the GI50 in assay [11] was 0.404 µM (active).

Consider `Nc1nc(Cl)c(C=O)c(NCC2(CO)CC(CCc3ccccc3)C2)n1` (configuration not stated), for which the GI50 in assay [1] is 2.07 µM (inactive); in assay [15] it was 16.2 µM (inactive); in assay [2], 2.29 µM (inactive); in assay [3], 8.05 µM (inactive); in assay [16] it was 12.6 µM (inactive); in assay [17], 14.8 µM (inactive). The GI50 in [18] was 3.57 µM (inactive); in assay [12] it was 14.5 µM (inactive); in [5] it was 5.38 µM (inactive); in assay [6], 14.1 µM (inactive); in [13], 3.08 µM (inactive); in assay [7], 4.1 µM (inactive). Moreover, the GI50 was 12.4 µM (inactive) in assay [8]; 1.48 µM (inactive) in assay [14]; 12.1 µM (inactive) in assay [9]; 11.6 µM (inactive) in assay [10]; 5.73 µM (inactive) in [19]; 12.1 µM (inactive) in assay [20]. The GI50 in [11] was 6.15 µM (inactive).

Consider `O=C(NNS(=O)(=O)c1ccccc1)c1cccnc1`, for which the GI50 in assay [1], in assay [15], in assay [2], in assay [3], in assay [16] and in assay [17] was > 100 µM (inactive) in each case. The GI50 in [18], in [12], in assay [5], in [6], in assay [13] and in [7] was > 100 µM (inactive) each time. Besides, the GI50 in [8], in assay [14], in [9], in assay [10], in [19] and in [20] was > 100 µM (inactive) each time. The GI50 in assay [11] was > 100 µM (inactive).
